System: IL-4
Experiment: IL-4 expression level of sorted CD4-positive memory T-cells of MS patients (ELISA of culture supernatant)
Format: in vivo, human
Conditions: 0.3 mg single oral
Description: A single dose of compound 31, which is a synthetic glycolipid of the present invention, described in the first aspect was orally administered to each of 2 MS patients (subjects) shown in Table 2 above after obtainment of informed consent. The dose was set to 0.3 mg per person.
Subsequently, T-cell subfractions were prepared from the peripheral blood of each subject by using the density gradient centrifugation method. First, a total of 20 mL of blood was collected from the vein of each subject 24 hours (1st day), 48 hours (2nd day), 72 hours (3rd day), 168 hours (7th day), and 192 hours (8th day) after the administration of compound 31 by using two 10-mL heparin sodium-containing vacuum blood collection tubes. For a control, 20 mL of blood was similarly collected from the vein of each subject one day before the administration of compound 31.
The collected PBMCs were stained with antibodies by the following method. First, 10 μL of a solution consisting of 20 μL of MACS buffer, 0.25 μL of APC-Cy7-anti-CD3 antibody (BioLegend, Inc.), 1 μL of PB-anti-CD4 antibody (BioLegend, Inc.), 1 μL of PerCP-Cy5.5-anti-CD45RA antibody (BioLegend, Inc.), and 1 μL of PC7-anti-CD56 antibody (Beckman Coulter, Inc.) was added to 6×10^6 cells of PBMCs, thoroughly mixed by vortexing, and then left on ice for 20 minutes. CD56 is a detection marker of cells having NK activity, and CD3^−CD56^− cells indicate being antigen-presenting cells (APCs). […]
mCD4T and APC obtained by the sorting were each suspended in a medium consisting of 500 mL of RPMI1640 (GIBCO/Thermo Fisher Scientific Inc.), 5 mL of glutamine (200 mM, Wako Pure Chemical Industries, Ltd.), 5 mL of Pen/strep (10,000 U/mL, GIBCO/Thermo Fisher Scientific Inc.), 0.5 mL of 2-mercaptoethanol (GIBCO/Thermo Fisher Scientific Inc.), and 50 mL of 10% (v/v) Cellect FETAL BOVINE SERUM (MP Biomedicals, LLC), and the number of cells was measured. […]
After the culture, a culture supernatant was collected, and IFN-γ, IL-4, IL-17, and GM-CSF were measured by the ELISA method. […]

For CCCCCCCCCCCCCCCCCCCCCCCC(=O)NC(COC1OC(CO)C(O)C(O)C1O)[C@H](O)C(O)CCCCC (stereo in doubt) [compound 31, (2S,3S,4R)-1-O-(α-D-galactosyl)-2-(N-tetracosanoylamino)-1,3,4-nonanetriol], the IL-4 expression level (day 8, MBP stimulation, day −1 value 3.63) was 6.38, the IL-4 expression level (day 8, OVA stimulation, day −1 value 3.66) was 7.19 and the “change of expression level of IL-4” value (day8 vs day-1) was “increased”.
